pIC50: −log10 of the molar value.
Tested on: S. Typhimurium GFP reporter counter-screen, fluorescence, 4 h
Assay: S. Typhimurium nonspecific reporter signal inhibition – Salmonella Typhimurium, GFP fluorescence, counter-screen for PhoP regulon inhibitor project, dose response (AID 2401);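 note: S. typhimurium with Mg-insensitive nmpC-GFP reporter grown at 10 µM Mg2+; drop in reporter fluorescence reflects general culture growth inhibition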

`Cc1ccc(-c2csc(N=C(N)N)n2)c(C)c1` was tested. Which pIC50 did it give?
The pIC50 was 4.24.

How did the pIC50 turn out when `C#CCOCCOCCOCCNc1nc(N2CCN(C(=O)CCCCCCCCCCNC(=O)[C@H]([C@@H](C)CC)n3cc(CCCCN=C(N)N)nn3)CC2)nc(N2CCN(C(=O)CCCCCCCCCCNC(=O)[C@H](CCCN=C(N)N)n3cc(C[C@@H](C)CC)nn3)CC2)n1` was run?
Its pIC50 is 4.34.

How did the pIC50 turn out when `CC1CCC(C(C)C)C(OC(=O)Cn2c(COc3ccccc3)[n+](C)c3ccccc32)C1` (configuration not stated) was run?
Its pIC50 is 4.39.

`COc1ccc(/C=N/Nc2cc(C)nc3ccccc23)cc1` was tested. Which pIC50 did it give?
The pIC50 was 4.29.

How did the pIC50 turn out when `CCn1cc(C(=O)O)c(=O)c2cc(F)c(N3CCN(C(=O)Nc4ccccc4)CC3)cc21` was run?
Its pIC50 is 4.12.

`Cc1sc2ncnc(N/N=C/c3ccccc3O)c2c1C` was tested. Which pIC50 did it give?
Its pIC50 is 4.14.

`Cc1ccc(C(C[N+](=O)[O-])c2c(C)cc3ccccn23)cc1` (configuration not stated) was tested. Which pIC50 did it give?
Its pIC50 is 4.19.

With `CCCCCCCCCCOC(=O)Cn1c(COc2ccccc2)[n+](C)c2ccccc21` as the compound, how does the pIC50 read?
Its pIC50 is 4.72.

With `O=C(N/N=C\C=C\c1ccc([N+](=O)[O-])o1)c1cccs1` as the compound, how does the pIC50 read?
The pIC50 was 4.68.

With `O=[N+]([O-])c1ccc(CNC2CCCc3ccccc32)cc1` (configuration not stated) as the compound, how does the pIC50 read?
The pIC50 was 4.01.

How did the pIC50 turn out when `COc1cccc(C2Nc3ccccc3C(=O)N2O)c1O` (configuration not stated) was run?
Its pIC50 is 3.86.

How did the pIC50 turn out when `O=C(NC(CO)Cc1ccc([N+](=O)[O-])cc1)C(Cl)Cl` (configuration not stated) was run?
Its pIC50 is 4.90.

How did the pIC50 turn out when `CN(C)c1ccc(/C=C/c2ccc3c4ccccc4ccc3[n+]2-c2ccccc2)cc1` was run?
Its pIC50 is 4.73.

`Cc1cc(C(=O)N/N=C/c2cc(Br)cc([N+](=O)[O-])c2O)c2ccccc2n1` was tested. Which pIC50 did it give?
The pIC50 was 3.96.

How did the pIC50 turn out when `CCCCCN=C(N)N/N=C/c1c[nH]c2ccc(OC)cc12` was run?
The pIC50 was 4.43.

How did the pIC50 turn out when `O=C1NC(=S)S/C1=C\C=C\c1ccc([N+](=O)[O-])o1` was run?
The pIC50 was 4.66.

`O=c1[nH]c2ccccc2n2c(=S)[nH]nc12` was tested. Which pIC50 did it give?
The pIC50 was 4.43.

— PubChem BioAssay AID2401 (Southern Research Specialized Biocontainment Screening …, 2010)
